Results taken from patent US11759492B2, “Extract from a plant of the genus Boswellia and related products and uses” (Alpinia Laudanum Institute of Phytopharmaceutical Sciences …, priority 2014, dated 2023).

Test system: HepG2 cells
Assay: Determination of reactive oxygen species (ROS) in HepG2 indicator cells (ROS-Glo system)
Type: cell-based
Conditions: two hours or four hours of incubation, FIG. 4 and 5
Method: The potential of Boswellia extract BSR037: LN00125 (Example 12) and Boswellia extract BSR037: LN00126 (Example 15) of inducing reactive oxygen species (ROS) was tested. The effects were compared with ROS generation upon exposure to positive control Menadione as well as two solvent ethanol. To this end, HepG2 cells were incubated in presence of different concentrations of the respective Boswellia extract for two hours. ROS levels were determined by using the ROS-Glo system (Promega). HepG2 cells were seeded in […] flat-bottom black microtiter plates at a density of 10000 cells per well, 100 μl per well, and allowed to attach to the plate for 24 hours. Test item dilutions were prepared in separate plates. The maximum concentration was a 1:100 dilution in media (final solvent concentration: 1% ethanol) followed by a 1:3 serial dilution in media containing 1% ethanol. […] Cells exposed to media containing 1% ethanol served as untreated control. After overnight adherence, media was completely removed from cells by vacuum aspiration and 80 μl of compound dilution, positive and negative controls were added to the cells. Test items were tested in two replicates per concentration (A and B). In independent experiments, ROS levels were measured after two hours of incubation (see FIG. 4A-D) or after four hours of incubation (see FIG. 5A-D), respectively).

CC1=CC(=O)c2ccccc2C1=O [Menadione] was tested, and the ROS induction was “ROS induction was detected”.
